Reference: US10980776B2, “Synergistic pharmaceutical combination for the treatment of squamous cell carcinoma of head and neck” (Piramal Enterprises Limited, priority 2011, dated 2021)
Where two headings read alike, the source gives them in different places.

How the values were obtained:
[1] = tested on: FaDu (hypopharyngeal squamous cell carcinoma) xenografts; assay: In vivo efficacy in human head and neck cancer FaDu xenografts; conditions: FaDu xenografts in SCID mice; end of treatment, after 18 days; Compound A 35 mpk i.p. once daily 5 days a week; cisplatin 1 mpk i.p. once a week; cetuximab 2.5 mpk twice a week; 3 weeks
Method: In-vivo studies were carried out according to the method described in Clinical cancer search, 2003, 9, 6052-6061; the disclosure of which is incorporated herein by reference for the teaching of the assay.
The in-vivo studies were carried out using Xenograft models in Severe combined immune deficiency (SCID) mice strain—CbySmn.CB17-Prkdcscid/J, by the method described below. The statistically significant number of mice per group (n=6) was chosen in order to be able to statistically evaluate the study data.
FaDu cells were grown in MEM (minimum essential media) medium containing non-essential amino acids and 10% fetal calf serum in 5% CO2 incubator at 37° C. Cells were pelleted by centrifugation at 1000 rpm for 10 minutes. Cells were resuspended in pre-chilled mixture of saline to get a count of 6×10^6 cells per mL; 0.2 ml of this cell suspension was kept on ice and injected by subcutaneous (s.c.) route in SCID mice. Mice were observed every alternate day for palpable tumor mass. Once the tumor size reached a size of 3-5 mm in diameter, animals were randomized into respective groups of treatment and untreated controls. The treatment groups comprised of 5 groups viz. […] The control group received no treatment.
Measurement of tumor was done every 2-3 days apart. Growth inhibition percentage (GI %) was calculated at the end of experiment.

Detroit-562 cells [2] = assay: CCK-8 cytotoxicity assay, determination of inhibitory concentrations in Detroit-562 cells; type: cell-based; conditions: 72 hr
Method: (§1) Logarithmically growing cells were plated at a density of 3×10^3 cells/well and allowed to recover overnight. […] After 72 hours, cell toxicity was determined by CCK-8 (Cell Counting Kit-8) reagent (Dojindo Molecular Technologies, Japan); WST-8 (2-(2-methoxy-4-nitrophenyl)-3-(4-nitrophenyl)-5-(2, 4-disulfophenyl)]-2H-tetrazolium, monosodium salt) assay. In accordance with the manufacturer's instructions, 5 μl/well CCK-8 reagent was added and plates were incubated for 2 hours. The toxicity was determined by measuring the absorbance on Tecan Sapphire multi-fluorescence micro-plate reader (Tecan, Germany, GmbH) at a wavelength of 450 nm corrected to 650 nm and normalized to controls.
(§2) CCK-8 allows convenient assays using Dojindo's tetrazolium salt, WST [8[(2-(2-methoxy-4-nitrophenyl)-3-(4-nitrophenyl)-5-(2,4-disulfophenyl)-2H-tetrazolium, monosodium salt], which produces a water-soluble formazan dye upon bioreduction in the presence of an electron carrier, 1-Methoxy PMS. CCK-8 solution is added directly to the cells; no pre-mixing of components is required. CCK-8 is a sensitive nonradioactive colorimetric assay for determining the number of viable cells in cell proliferation and cytotoxicity assays. WST-8 is bio-reduced by cellular dehydrogenases to an orange formazan product that is soluble in tissue culture medium. The amount of formazan produced is directly proportional to the number of living cells. The detection sensitivity of cell proliferation assays using WST-8 is higher than assays using the other tetrazolium salts such as MIT, XTT, MTS or WST-1. Optical Density was determined at measurement wavelength of 450 nm and reference wave length of 630 nm.
(§3) The cells were seeded at a density of 3000 cells/well, in a 200 μL in tissue culture grade 96 well plate and were allowed to recover for 24 hrs in a humidified 5%±0.2 CO2 incubator at 37° C.±0.5° C. […] The final DMSO concentration was 0.5% in wells. Plates were incubated for 48 hrs in humidified 5%±0.2 CO2 incubator at 37±0.5° C. After 48 hrs the plates were removed from CO2 incubator and 5 μL of Cell counting Kit (CCK-8) per well was added. The same plate was kept at 37° C. for 3 hrs, and allowed to come to room temperature. The absorbance at a wavelength of 450 nm was read on Tecan safire reader. The percent cytotoxicity was calculated using the following formula.

FADU cells [3] = assay: CCK-8 cytotoxicity assay, determination of inhibitory concentrations in FADU cells; type: cell-based, human; conditions: 72 hr
Method: as §1, §2, §3

Detroit-562 cells [4] = assay: Combination studies (single and sequential combination dosing), % cytotoxicity in Detroit-562 cells; conditions: for % Cytotoxicity: Detroit-562; for cytotoxicity at 1 µM / cytotoxicity at 1.8 µM: Homo sapiens, Detroit 562, Detroit-562
Method: as §1, §2
(§4) Sorafenib in the following dose of final concentration 1.8 μM and compound A in the following doses of final concentration 0.5 μM, 1.3 μM and 12.1 μM were analyzed in single dose and in all possible combinations of the dose range for the two anticancer agents mentioned above. The sequence of treatment is as follows; Detroit-562 cells were treated with sorafenib for 0 to 24 hrs. At the end of 24 hrs the cells were washed two times with plain MEM medium. Fresh MEM with 10% serum (200 μL/well) was added, followed by treatment with compound A from 24 hrs to 96 hrs.
as §4, with “compound B” for “compound A”, “concentration 2.7” for “concentration 0.5”, “μM, 14.1” for “μM, 1.3”, “and 25.2” for “and 12.1”, “follows; the” for “follows;”
as §4, with “Lapatinib” for “Sorafenib”, “1” for “1.8”, “follows; the” for “follows;”, “lapatinib” for “sorafenib”
(§5) Lapatinib in the following dose of final concentration 1.0 μM and compound B in the following doses of final concentration 2.7 μM, 14.1 μM and 25.2 μM were analyzed in single dose and in all possible combinations of the dose range for the two drugs mentioned above. The sequence of treatment is as follows; the Detroit-562 cells were treated with lapatinib for 0 to 24 hrs. At the end of 24 hrs the cells were washed two times with plain MEM medium. Fresh MEM with 10% serum (200 μL/well) was added, followed by treatment with compound A from 24 hrs to 96 hrs.

FADU cells [5] = conditions: FADU
FADU cells [6] = assay: cells; conditions: Homo sapiens
SCC-25 cells [7] = assay: Combination studies (single and sequential combination dosing), % cytotoxicity in SCC-25 cells; conditions: Homo sapiens, SCC-25, SCC-25
Method: as §1, §2
Sorafenib in the following dose of final concentration 0.18 μM and compound A in the following doses of final concentration 0.1 μM, 0.4 μM and 4.1 μM were analyzed in single dose and in all possible combinations of the dose range for the two anticancer agents mentioned above. The sequence of treatment is as follows; the SCC-25 cells were treated with sorafenib for 0 to 24 hrs. At the end of 24 hrs the cells were washed two times with plain MEM (minimum essential media) medium. Fresh MEM with 10% serum (200 μL/well) was added, followed by treatment with compound A from 24 hrs to 96 hrs.
Sorafenib in the following dose of final concentration 0.18 μM and compound B in the following doses of final concentration 0.2 μM, 1.1 μM and 4.8 μM were analyzed in single dose and in all possible combinations of the dose range for the two anticancer agents mentioned above. The sequence of treatment is as follows; the SCC-25 cells were treated with sorafenib for 0 to 24 hrs. At the end of 24 hrs the cells were washed two times with plain MEM medium. Fresh MEM with 10% serum (200 μL/well) was added, followed by treatment with compound B from 24 hrs to 96 hrs.
as §5, with “0.2” for “1.0”, “A” for “B”, “0.2” for “2.7”, “0.5” for “14.1”, “3.3” for “25.2”, “SCC-25” for “Detroit-562”
as §5, with “0.2” for “1.0”, “0.2” for “2.7”, “1.1” for “14.1”, “4.8” for “25.2”, “SCC-25” for “Detroit-562”

SCC-25 cells [8] = assay: CCK-8 cytotoxicity assay, determination of inhibitory concentrations in SCC-25 cells; type: cell-based; conditions: for IC90 / IC50: Homo sapiens
Method: as §1, §2, §3

[9] = single agent at IC10, docetaxel study
[10] = single agent at IC30, docetaxel study
[11] = single agent at IC50, cisplatin/5-FU/compound A study
[12] = single agent at IC70, cisplatin/5-FU/compound A study

Row | Compound | IC10 (Detroit-562 cells [2]) | IC30 (Detroit-562 cells [2]) | IC70 (Detroit-562 cells [2]) | IC10 (FADU cells [3]) | IC30 (FADU cells [3]) | IC70 (FADU cells [3]) | IC50 (Detroit-562 cells [2]; Homo sapiens) | IC90 (Detroit-562 cells [2]; Homo sapiens) | IC50 (FADU cells [3]; Homo sapiens) | IC90 (FADU cells [3]; Homo sapiens) | IC90 (SCC-25 cells [8]; SCC-25 cells, 72 hr) | IC30 (SCC-25 cells [8]; SCC-25 cells, 72 hr) | IC70 (SCC-25 cells [8]; SCC-25 cells, 72 hr) | other results
1 | N.N.[Cl][Pt][Cl] [Cisplatin] | 0.3 µM | 3 µM | 43.2 µM | 0.25 µM | 3 µM | 30 µM | – | – | – | – | – | – | – | Tumor Growth inhibition (%) [1]: 4%; IC50 (Detroit-562 cells [2]): 14.6 µM; IC90 (Detroit-562 cells [2]): 74.5 µM; IC50 (FADU cells [3]): 8.3 µM; IC90 (FADU cells [3]): 74 µM
2 | O=c1[nH]cc(F)c(=O)[nH]1 [Compound 5-FU] | 0.31 µM | 1.1 µM | 17.6 µM | 0.31 µM | 2.3 µM | 22.4 µM | 6.3 µM | 33.4 µM | 11.6 µM | 38.3 µM | – | – | – | % Cytotoxicity (Detroit-562 cells [4]; [9]): 9.49%; % Cytotoxicity (Detroit-562 cells [4]; [10]): 15.39%; % Cytotoxicity (Detroit-562 cells [4]; [11]): 16.21%; % Cytotoxicity (Detroit-562 cells [4]; [12]): 19.54%; % Cytotoxicity (Detroit-562 cells [4]; single agent at IC90, cisplatin/5-FU/compound A study): 12.59%; % Cytotoxicity (FADU cells [5]; [9]): 6.81%; % Cytotoxicity (FADU cells [5]; single agent at IC30, cisplatin/5-FU/compound A study): 17.81%; % Cytotoxicity (FADU cells [5]; [10]): 19.29%; % Cytotoxicity (FADU cells [5]; [11]): 21.1%; % Cytotoxicity (FADU cells [5]; [12]): 28.6%
3 | CC(=O)O[C@@]12CO[C@@H]1C[C@H](O)[C@@]1(C)C(=O)[C@H](O)C3=C(C)[C@@H](OC(=O)[C@H](O)[C@@H](NC(=O)OC(C)(C)C)c4ccccc4)C[C@@](O)([C@@H](OC(=O)c4ccccc4)[C@H]21)C3(C)C [Docetaxel] | 0.009 µM | 0.3 µM | 8.7 µM | 0.003 µM | 0.06 µM | 0.71 µM | 0.85 µM | 21.8 µM | 0.16 µM | 35.6 µM | – | – | – | –
4 | C#Cc1cccc(Nc2ncnc3cc(OCCOC)c(OCCOC)cc23)c1 [Erlotinib] | – | 1.4 µM | 6.3 µM | – | 0.9 µM | 30.7 µM | 2.3 µM | 10.7 µM | 10.2 µM | 63 µM | – | – | – | –
5 | CS(=O)(=O)CCNCc1ccc(-c2ccc3ncnc(Nc4ccc(OCc5cccc(F)c5)c(Cl)c4)c3c2)o1 [Lapatinib, N-(3-chloro-4-{[(3-fluorophenyl)methyl]oxy}phenyl)-6-[5-({[2-(methylsulfonyl)ethyl]amino}methyl)-2-furanyl]-4-quinazolinaminebis(4-methylbenzenesulfonate)monohydrate] | – | 1.0 µM | 7.6 µM | – | 0.8 µM | 8.7 µM | 3.9 µM | 12.6 µM | 2.6 µM | 14.3 µM | 9.9 µM | 0.2 µM | 3.3 µM | cytotoxicity at 0.8 µM (FADU cells [6]; single agent at IC30 (lapatinib 0.8 μM; compound A 0.2 μM)): 19%; cytotoxicity at 0.8 µM (FADU cells [6]; single agent at IC30 (lapatinib 0.8 μM; compound B 2.3 μM)): 19%; cytotoxicity at 1 µM (Detroit-562 cells [4]; single agent at IC30 (lapatinib 1 μM; compound A 0.5 μM)): 16%; cytotoxicity at 1 µM (Detroit-562 cells [4]; single agent at IC30 (lapatinib 1.0 μM; compound B 2.7 μM)): 16%; cytotoxicity at 0.2 µM (SCC-25 cells [7]; single agent at IC30 (lapatinib 0.2 μM; compound A 0.2 μM)): 17%; cytotoxicity at 0.2 µM (SCC-25 cells [7]; single agent at IC30 (lapatinib 0.2 μM; compound B 0.2 μM)): 17%; IC50 (SCC-25 cells [8]; SCC-25 cells, 72 hr, read-out: IC50): 0.5 µM
6 | CNC(=O)c1cc(Oc2ccc(NC(=O)Nc3ccc(Cl)c(C(F)(F)F)c3)cc2)ccn1.Cc1ccc(S(=O)(=O)O)cc1 [Sorafenib, 4-(4-{3-[4-chloro-3-(trifluoromethyl)phenyl]ureido}phenoxy)N^2-methylpyridine-2-carboxamide-4-methylbenzenesulfonate] | – | 1.8 µM | 11.2 µM | – | 3.9 µM | 14.8 µM | 6.1 µM | 15.3 µM | 8.4 µM | 30.6 µM | 11.7 µM | 0.18 µM | 6.8 µM | cytotoxicity at 3.9 µM (FADU cells [6]; single agent at IC30 (sorafenib 3.9 μM; compound A 0.2 μM)): 21%; cytotoxicity at 3.9 µM (FADU cells [6]; single agent at IC30 (sorafenib 3.9 μM; compound B 2.3 μM)): 21%; cytotoxicity at 1.8 µM (Detroit-562 cells [4]; single agent at IC30 (sorafenib 1.8 μM; compound A 0.5 μM)): 14%; cytotoxicity at 1.8 µM (Detroit-562 cells [4]; single agent at IC30 (sorafenib 1.8 μM; compound B 2.7 μM)): 13%; cytotoxicity at 0.18 µM (SCC-25 cells [7]; single agent at IC30 (sorafenib 0.18 μM; compound A 0.1 μM)): 13%; cytotoxicity at 0.18 µM (SCC-25 cells [7]; single agent at IC30 (sorafenib 0.18 μM; compound B 0.2 μM)): 13%; IC50 (SCC-25 cells [8]; SCC-25, 72 h): 2.7 µM
